Assays:
[1] = biological target: T1, MKNK1 (Homo sapiens, UniProt Q9BUB5, T385D); assay: MKNK1 kinase high ATP assay (TR-FRET); assay type: biochemical; conditions: ATP final conc. 2 mM; 15 min pre-incubation; reaction time 30 min at 22°C
T1 construct: GST (N); purchased Carna Biosciences 02-145; host or cells: insect cells (baculovirus expression system)
Procedure: MKNK1-inhibitory activity at high ATP of compounds of the present invention after their preincubation with MKNK1 was quantified employing the TR-FRET-based MKNK1 high ATP assay as described in the following paragraphs.
As substrate for the kinase reaction the biotinylated peptide biotin-Ahx-[…] (C-terminus in amide form) was used, which can be purchased e.g. from the company Biosyntan (Berlin-Buch, Germany).
For the assay 50 nL of a 100fold concentrated solution of the test compound in DMSO was pipetted into a black low volume 384well microtiter plate (Greiner Bio-One, Frickenhausen, Germany), 2 µL of a solution of MKNK1 in aqueous assay buffer [50 mM HEPES pH 7.5, 5 mM magnesium chloride, 1.0 mM dithiothreitol, 0.005% (v/v) Nonidet-P40 (Sigma)] was added and the mixture was incubated for 15 min at 22°C to allow pre-binding of the test compounds to the enzyme before the start of the kinase reaction. Then the kinase reaction was started by the addition of 3 µL of a solution of adenosine-tri-phosphate (ATP, 3.3 mM => final conc. in the 5 µL assay volume is 2 mM) and substrate (0.1 µM => final conc. in the 5 µL assay volume is 0.06 µM) in assay buffer and the resulting mixture was incubated for a reaction time of 30 min at 22°C. The concentration of MKNK1 was adjusted depending of the activity of the enzyme lot and was chosen appropriate to have the assay in the linear range, typical concentrations were in the range of 0.003 µg/mL. The reaction was stopped by the addition of 5 µL of a solution of TR-FRET detection reagents (5 nM streptavidine-XL665 [Cisbio Bioassays, Codolet, France] and 1 nM anti-ribosomal protein S6 (pSer236)-antibody from Invitrogen [# 44921G] and 1 nM LANCE EU-W1024 labeled ProteinG [Perkin-Elmer, product no. AD0071]) in an aqueous EDTA-solution (100 mM EDTA, 0.1 % (w/v) bovine serum albumin in 50 mM HEPES pH 7.5).
(§1) The resulting mixture was incubated for 1 h at 22°C to allow the formation of complex between the phosphorylated biotinylated peptide and the detection reagents. Subsequently the amount of phosphorylated substrate was evaluated by measurement of the resonance energy transfer from the Eu-chelate to the streptavidine-XL. Therefore, the fluorescence emissions at 620 nm and 665 nm after excitation at 350 nm were measured in a TR-FRET reader, e.g. a Rubystar (BMG Labtechnologies, Offenburg, Germany) or a Viewlux (Perkin-Elmer). The ratio of the emissions at 665 nm and at […] was taken as the measure for the amount of phosphorylated substrate. The data were normalised (enzyme reaction without inhibitor = 0 % inhibition, all other assay components but no enzyme = 100 % inhibition).

[2] = biological target: T1, MKNK1; assay: MKNK1 kinase assay (TR-FRET); assay type: biochemical; conditions: ATP final conc. 10 µM; 15 min pre-incubation; reaction time 45 min at 22°C
Procedure: MKNK1-inhibitory activity of compounds of the present invention was quantified employing the MKNK1 TR-FRET assay as described in the following paragraphs.
As substrate for the kinase reaction the biotinylated peptide biotin-Ahx-[…] (C-terminus in amide form) was used which can be purchased e.g. form the company Biosyntan (Berlin-Buch, Germany).
For the assay 50 nL of a 100fold concentrated solution of the test compound in DMSO was pipetted into a black low volume 384well microtiter plate (Greiner Bio-One, Frickenhausen, Germany), 2 µL of a solution of MKNK1 in aqueous assay buffer [50 mM HEPES pH 7.5, 5 mM magnesium chloride, 1.0 mM dithiothreitol, 0.005% (v/v) Nonidet-P40 (Sigma)] was added and the mixture was incubated for 15 min at 22°C to allow pre-binding of the test compounds to the enzyme before the start of the kinase reaction. Then the kinase reaction was started by the addition of 3 µL of a solution of adenosine-tri-phosphate (ATP, 16.7 µM => final conc. in the 5 µL assay volume is 10 µM) and substrate (0.1 µM => final conc. in the 5 µL assay volume is 0.06 µM) in assay buffer and the resulting mixture was incubated for a reaction time of 45 min at 22°C.
as §1, with “inhibition). […] Table 1: MKNK1 IC50s” for “inhibition).”

T1 sequence (Q9BUB5 1-424 isoform Q9BUB5-2 T344D): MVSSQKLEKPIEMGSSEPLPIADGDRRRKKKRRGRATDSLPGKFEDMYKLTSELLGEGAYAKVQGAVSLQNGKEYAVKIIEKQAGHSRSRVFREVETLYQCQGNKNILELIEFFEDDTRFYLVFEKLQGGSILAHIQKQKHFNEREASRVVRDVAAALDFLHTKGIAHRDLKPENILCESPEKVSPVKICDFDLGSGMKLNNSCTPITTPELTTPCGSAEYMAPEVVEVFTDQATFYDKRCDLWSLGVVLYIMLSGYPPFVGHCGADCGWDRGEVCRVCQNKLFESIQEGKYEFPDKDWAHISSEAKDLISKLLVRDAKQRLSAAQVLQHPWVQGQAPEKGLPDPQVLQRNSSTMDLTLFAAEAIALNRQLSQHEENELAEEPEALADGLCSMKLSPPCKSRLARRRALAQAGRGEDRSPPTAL

SMILES: C[C@H](N)COc1ccc2ncc(-c3cc4c(F)cccc4o3)n2n1 [Example 45, (2S)-1-{[3-(4-Fluoro-1-benzofuran-2-yl)imidazo[1,2-b]pyridazin-6-yl]oxy}-propan-2-amine]
- IC50 [1]: 0.071 µM
- IC50 [2]: 0.017 µM

SMILES: N[C@H](COc1ccc2ncc(-c3cc4c(F)cccc4o3)n2n1)c1ccccc1 [Example 46, (1S)-2-{[3-(4-Fluoro-1-benzofuran-2-yl)imidazo[1,2-b]pyridazin-6-yl]oxy}-1-phenylethanamine]
- IC50 [1]: 0.067 µM
- IC50 [2]: 0.036 µM

SMILES: C[C@H](CN)Oc1ccc2ncc(-c3cc4cccc(F)c4o3)n2n1 [Example 48, (2R)-2-{[3-(7-Fluoro-1-benzofuran-2-yl)imidazo[1,2-b]pyridazin-6-yl]oxy}-propan-1-amine]
- IC50 [1]: 0.115 µM
- IC50 [2]: 0.071 µM

SMILES: Cc1ccc2oc(-c3cnc4ccc(O[C@H](C)CN)nn34)cc2c1 [Example 49]
- IC50 [1]: 0.154 µM
- IC50 [2]: 0.088 µM

SMILES: N[C@H](COc1ccc2ncc(-c3cc4ccccc4o3)n2n1)Cc1ccccc1 [Example 50, (2S)-1-{[3-(1-Benzofuran-2-yl)imidazo[1,2-b]pyridazin-6-yl]oxy}-3-phenyl-propan-2-amine]
- IC50 [1]: 0.054 µM
- IC50 [2]: 0.027 µM

SMILES: NC1(COc2ccc3ncc(-c4cc5ccccc5o4)n3n2)CC1 [Example 51, 1-({[3-(1-Benzofuran-2-yl)imidazo[1,2-b]pyridazin-6-yl]oxy}methyl)cyclo-propanamine]
- IC50 [1]: 0.074 µM
- IC50 [2]: 0.029 µM

SMILES: NCC(COc1ccc2ncc(-c3cc4ccccc4o3)n2n1)c1ccccc1 (centres unmarked) [Example 52, 3-{[3-(1-Benzofuran-2-yl)imidazo[1,2-b]pyridazin-6-yl]oxy}-2-phenylpropan-1-amine]
- IC50 [1]: 0.03 µM
- IC50 [2]: 0.017 µM
